The record followed here is PubChem BioAssay (NCI).

Among the test systems are HCC-2998 colon; SF-295 CNS; RPMI-8226 leukemia; UO-31 renal; OVCAR-5 ovarian; SNB-75 CNS; NCI-H460 lung; OVCAR-4 ovarian; ACHN renal; MALME-3M melanoma.
Holding throughout (test): NCI anticancer screen, dose series, 48 h

“And” between values parts separate entries of the source, which are not always exact repeats. Equal values may be shown once.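 Values below derive from 48-hour exposures of cells grown in 96-well plates, with endpoints linearly interpolated between the two concentrations bracketing the appropriate inhibition level. GI50 is the concentration that inhibits growth by half. TGI marks complete inhibition of growth.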 A value given as a limit tells only on which side of the number the result lay.

For `Cc1ccc2c(C(C[N+](=O)[O-])c3ccccc3)c(-c3ccccc3)[nH]c2c1` (stereo not drawn), the GI50 is 73.7 µM in the assay with HCC-2998 colon; 36.7 µM with SF-295 CNS; 36.8 µM with RPMI-8226 leukemia; 15.4 µM in the assay with UO-31 renal; 85.3 µM with OVCAR-5 ovarian; 2.87 µM in the assay on SNB-75 CNS. In addition, the GI50 with NCI-H460 lung is 30.1 µM; with OVCAR-4 ovarian, 42.4 µM; in the assay on ACHN renal, 57.2 µM; with MALME-3M melanoma, 10.2 µM. The TGI with HCC-2998 colon is more than 95 µM; in the assay with SF-295 CNS it was more than 95 µM; in the assay on RPMI-8226 leukemia, more than 95 µM; in the assay on UO-31 renal, more than 95 µM; in the assay on OVCAR-5 ovarian, more than 95 µM; with SNB-75 CNS, 43.6 µM. Further, the TGI in the assay on NCI-H460 lung, in the assay on OVCAR-4 ovarian, in the assay with ACHN renal and with MALME-3M melanoma was more than 95 µM each time.

On to `Nc1nc(=O)n(C2CCC(CO)O2)cc1F` (stereo not drawn), for which the TGI with HCC-2998 colon, with SF-295 CNS, in the assay on RPMI-8226 leukemia, in the assay on UO-31 renal, in the assay on OVCAR-5 ovarian and in the assay on SNB-75 CNS was more than 100 µM throughout. Besides, the TGI in the assay on NCI-H460 lung, in the assay on OVCAR-4 ovarian, in the assay on ACHN renal and in the assay with MALME-3M melanoma was more than 100 µM throughout.

As to `NC(=O)c1cc(N2CC2)c([N+](=O)[O-])cc1[N+](=O)[O-]`, the GI50 in the assay with HCC-2998 colon, with SF-295 CNS, with RPMI-8226 leukemia, in the assay on UO-31 renal, with OVCAR-5 ovarian and in the assay with SNB-75 CNS was more than 200 µM each time. The GI50 in the assay with OVCAR-4 ovarian and with ACHN renal was more than 200 µM throughout. In addition, the TGI with HCC-2998 colon, with SF-295 CNS, with RPMI-8226 leukemia, in the assay with UO-31 renal, in the assay with OVCAR-5 ovarian and in the assay on SNB-75 CNS was more than 200 µM in each case. Besides, the TGI in the assay on NCI-H460 lung was more than 77 µM; with OVCAR-4 ovarian, more than 200 µM; with ACHN renal, more than 200 µM; with MALME-3M melanoma it was more than 200 µM.

`Cn1ncc(Cl)c1-c1cc(C(=O)N[C@H](CN)Cc2cccc(F)c2)sc1Cl`: the GI50 was 0.743 µM and 1.54 µM in the assay on HCC-2998 colon; 0.255 µM and 0.486 µM in the assay with SF-295 CNS; 1.65 µM and 2.06 µM in the assay with RPMI-8226 leukemia; 0.844 µM and 1.51 µM in the assay with UO-31 renal; 2.2 µM and 2.69 µM with OVCAR-5 ovarian; 0.139 µM and 0.131 µM in the assay on SNB-75 CNS. The GI50 was 0.406 µM and 0.568 µM with NCI-H460 lung; 4.9 µM and 6.33 µM in the assay with OVCAR-4 ovarian; 2.57 µM and 2.76 µM in the assay on ACHN renal; 1.08 µM and 0.969 µM with MALME-3M melanoma. The TGI in the assay with HCC-2998 colon was 2.67 µM and 4.87 µM; in the assay with SF-295 CNS, 2.95 µM and 7.01 µM; in the assay on RPMI-8226 leukemia it was 5.8 µM and 6.11 µM; in the assay on UO-31 renal, > 7.4 µM and 12.5 µM; in the assay with OVCAR-5 ovarian it was > 10 µM and 17.2 µM; with SNB-75 CNS, 1.48 µM and 2.56 µM. In addition, the TGI with NCI-H460 lung was > 10 µM and 13.3 µM; in the assay on OVCAR-4 ovarian, > 10 µM and 19.3 µM; in the assay with ACHN renal, > 10 µM and 15.4 µM; in the assay on MALME-3M melanoma, 2.61 µM and 2.99 µM.

Regarding `COC(=O)CCC(=O)Nc1ccc(Cl)cc1C`, the TGI in the assay on HCC-2998 colon, in the assay with SF-295 CNS, in the assay with RPMI-8226 leukemia, in the assay on UO-31 renal, with OVCAR-5 ovarian and with SNB-75 CNS was more than 100 µM in each case. In addition, the TGI in the assay on NCI-H460 lung, with OVCAR-4 ovarian, in the assay on ACHN renal and with MALME-3M melanoma was more than 100 µM each time.

On to `Cc1c(Cn2c(C)nc3c(C(=O)O)cc(N4CCOCC4)cc32)cccc1C(F)(F)F`, for which the GI50 with HCC-2998 colon was 72.4 µM; with SF-295 CNS, 11 µM; with RPMI-8226 leukemia, 64.8 µM; in the assay with UO-31 renal, 3.46 µM; in the assay with OVCAR-5 ovarian, 81.7 µM; in the assay on SNB-75 CNS, 12.3 µM. The GI50 with NCI-H460 lung was 40 µM; in the assay on OVCAR-4 ovarian, 42.4 µM; in the assay on ACHN renal it was 8.73 µM; in the assay with MALME-3M melanoma, more than 69.7 µM. Also, the TGI in the assay on HCC-2998 colon is more than 100 µM; with SF-295 CNS it was more than 84.4 µM; in the assay with RPMI-8226 leukemia it was more than 100 µM; in the assay on UO-31 renal it was more than 67.6 µM; in the assay with OVCAR-5 ovarian, more than 100 µM; in the assay on SNB-75 CNS, more than 100 µM. The TGI in the assay on NCI-H460 lung, with OVCAR-4 ovarian, with ACHN renal and in the assay with MALME-3M melanoma was more than 100 µM each time.

With `CSC(=NC(=O)c1ccccc1Cl)SCCSC(=NC(=O)c1ccccc1Cl)SC`, the TGI in the assay with HCC-2998 colon, with SF-295 CNS, in the assay with RPMI-8226 leukemia, in the assay with UO-31 renal, in the assay with OVCAR-5 ovarian and in the assay with SNB-75 CNS was more than 100 µM throughout. For the same compound, the TGI in the assay on NCI-H460 lung, with OVCAR-4 ovarian, with ACHN renal and with MALME-3M melanoma was more than 100 µM in each case.

Turning to `CCC1=C(c2ccc(OC)cc2)C(C)(C)Oc2c1ccc(O)c2CN1CCCC1`, the GI50 is 1.44 µM in the assay with HCC-2998 colon; 2.33 µM in the assay with SF-295 CNS; 0.721 µM in the assay on RPMI-8226 leukemia; 2.19 µM with UO-31 renal; 4.1 µM with OVCAR-5 ovarian; 1.66 µM with SNB-75 CNS. In addition, the GI50 with NCI-H460 lung was 1.7 µM; in the assay with OVCAR-4 ovarian, 2.16 µM; in the assay with ACHN renal, 3.6 µM; in the assay with MALME-3M melanoma, 2.05 µM. Also, the TGI is 2.88 µM in the assay on HCC-2998 colon; 6.01 µM in the assay with SF-295 CNS; 2.45 µM in the assay with RPMI-8226 leukemia; more than 100 µM with UO-31 renal; 29.4 µM with OVCAR-5 ovarian; 87.4 µM with SNB-75 CNS. In addition, the TGI with NCI-H460 lung was 3.59 µM; with OVCAR-4 ovarian, 29 µM; in the assay on ACHN renal, more than 100 µM; in the assay with MALME-3M melanoma, 5.36 µM.

Take `COc1cc2nc(Nc3cccc(Cl)c3)nc(N)c2cc1OC`: the GI50 with HCC-2998 colon was 1.89 µM; with SF-295 CNS, 4.37 µM; in the assay on RPMI-8226 leukemia, 2.11 µM; with UO-31 renal it was 6.66 µM; with OVCAR-5 ovarian it was 17.2 µM; with SNB-75 CNS, 17.4 µM. In addition, the GI50 is 4.09 µM with NCI-H460 lung, 10.7 µM with OVCAR-4 ovarian, 11.4 µM in the assay on ACHN renal and 2.47 µM in the assay with MALME-3M melanoma. In addition, the TGI in the assay on HCC-2998 colon was 3.57 µM; in the assay on SF-295 CNS, more than 36.3 µM; with RPMI-8226 leukemia, 5.34 µM; in the assay on UO-31 renal it was 20.9 µM; in the assay with OVCAR-5 ovarian, 35.4 µM; with SNB-75 CNS it was 32.3 µM. Besides, the TGI worked out at 15.5 µM in the assay on NCI-H460 lung, 26.3 µM in the assay with OVCAR-4 ovarian, 23.8 µM with ACHN renal and 6.62 µM in the assay on MALME-3M melanoma.
